Drawing on patent US11584763B2, “Chromenopyridine derivatives as phosphatidylinositol phosphate kinase inhibitors” (HIBERCELL, INC., priority 2017, dated 2023), this text covers IC50 for 15 molecules.

Molecules are shown by their SMILES.

One test concerns the target T1, PIP4K2B (Homo sapiens, UniProt P78356).
T1 construct: made in house; host or cells: E. coli
T1 sequence (P78356 1-416): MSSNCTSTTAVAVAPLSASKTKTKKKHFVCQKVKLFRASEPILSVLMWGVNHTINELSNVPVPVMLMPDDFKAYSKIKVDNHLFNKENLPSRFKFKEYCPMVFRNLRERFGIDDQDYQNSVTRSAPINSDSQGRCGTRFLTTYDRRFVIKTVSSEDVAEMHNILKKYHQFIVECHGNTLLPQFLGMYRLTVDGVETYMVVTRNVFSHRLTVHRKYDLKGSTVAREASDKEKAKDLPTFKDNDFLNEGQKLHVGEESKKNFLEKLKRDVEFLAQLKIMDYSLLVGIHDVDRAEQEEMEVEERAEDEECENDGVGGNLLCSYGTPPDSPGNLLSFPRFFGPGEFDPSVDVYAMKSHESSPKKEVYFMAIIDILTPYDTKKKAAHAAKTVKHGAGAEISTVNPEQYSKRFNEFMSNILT
Put plainly: Trans-FI P kinase assay PIP4K2B (PIP4KtypeIIB inhibition assay). Format: biochemical. The following applies: compounds listed under IC50 bin headings; 100 uM GTP; read-out: Trans-FI P kinase assays: PIP4K2B IC50. From the text:
GST tagged PIP4KtypeIIA and B enzymes were overexpressed in E. Coli and purified to >80% homogeneity. Phosphatidyl inositol-5-phosphate (PI5P, Cat. #850152, Avanti Polar Lipids Inc.) was used as the lipid substrate and phosphatidyl ethanolamine (DOPE 18:1, Cat. #850725, Avanti Polar Lipids Inc.) was used as the carrier lipid for assays. Ultrapure ATP and GTP was purchased from Bellbrooke Labs. ADP Glo reagents were obtained from Promega. Transcreener FI reagent was obtained from Bellbrooke labs.
GST-tagged PIP4KtypeIIB (3.4 uL, 2.77 mg/mL) was diluted to 5 mL using HNE buffer to yield 5× enzyme stock (25 nM)
Lipid Preparation: In a 10 mL pyrex glass vial, 1 ug of PI5P and 1 ug of DOPE were suspended in 2.5 mL of HEPES buffer mix and 2.5 mL of H:E buffer. The contents were mixed and sonicated for 3 min to yield a translucent lipid stock.
Compound Preparation: Compounds were stored as 5 mM stocks in neat DMSO as room temperature in glass vials. 5 mM stocks were diluted to 2 mM and then serially diluted (3×) in neat DMSO in 96 well polypropylene plates. From the serially diluted stocks, 3 uL was delivered into 250 uL of 25% DMSO (in water) to generate 5× compound stocks. Typically, the highest compound conc. was 24 uM.
The assay volume was kept at 25 uL. To each well of the reaction plate, 10 uL of lipid stock (1:1 ratio PI5P:DOPE) was delivered. This was followed by the addition of 5 uL of compound in 25% DMSO. Then, to each well, 5 uL of 25 nM (5×) typeIIB enzyme was delivered. The contents were mixed well and incubated for 1 h at 27 C. After 1 h, reaction was initiated by adding 5 uL of 500 uM GTP and the contents were mixed well with a multi-channel pipetteman. The final concentration of the reagents are as follows: 50 mM HEPES, pH 7.3, 10 mM MgCl2, 20 mM NaCl, 0.01% v/v triton-X100, 5% DMSO, 100 uM GTP, 80 uM (2 ug) PI5P, 2 ug DOPE, and 5 nM PIP4KIIB Typically, the highest conc. of compounds was 4.8 uM and the lowest conc. was 0.
After 2 h, the reaction was quenched by adding 25 uL of transcreener FI reagent. The contents were incubated at RT for 1 h and the Fluorescence (Ex: 584 Em: 623) was read using Molecular Devices Paradigm plate reader. […] The blanks were averaged and subtracted from all other wells. Using a calibration curve, RFU was converted to uM GDP (product). IC50 was calculated by plotting the residual activity (expressed as % No inhibitor control) vs. log [Inh. conc.]

The next test has as its target T2, PIP4K 2A (Homo sapiens, UniProt P48426).
T2 sequence (P48426 1-406): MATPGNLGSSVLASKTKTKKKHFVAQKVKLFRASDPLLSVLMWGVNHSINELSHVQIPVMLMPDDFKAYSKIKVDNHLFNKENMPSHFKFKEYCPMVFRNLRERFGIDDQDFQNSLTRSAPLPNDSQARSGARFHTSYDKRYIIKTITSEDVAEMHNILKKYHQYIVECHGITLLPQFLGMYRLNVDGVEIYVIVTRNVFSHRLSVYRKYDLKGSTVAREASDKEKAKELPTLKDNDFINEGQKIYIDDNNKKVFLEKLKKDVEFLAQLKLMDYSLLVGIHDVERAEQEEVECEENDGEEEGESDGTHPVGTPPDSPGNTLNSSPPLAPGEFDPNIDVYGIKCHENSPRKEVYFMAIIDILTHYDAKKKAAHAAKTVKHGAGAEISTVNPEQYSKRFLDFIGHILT
Description: ADP-glo kinase assay PIP4K 2A. Type of test: biochemical. Set-up: 4 nM PIP4K2A (full length protein, SignalChem); purchased SignalChem. The following applies: compounds listed under IC50 bin headings. As for the experimental part:
Dilution series of the compounds were prepared in DMSO at 100 times the final assay concentration (n1=n0/3 in 10 points). The compounds were further diluted to three times the assay concentration in assay buffer (20 mM MOPS pH 7.2, 25 mM magnesium chloride, 0.005% Tween 20). 6 μL of the diluted compounds were added to a 384 well assay plate followed by 9 μL of a mix consisting of 4 nM PIP4K2A (full length protein, SignalChem) and 100 μM PI(5)P diC8 (Tebu-Bio). Enzyme and compounds were pre-incubated at room temperature for 15 minutes.
Then 3 μL of a solution containing 60 μM ATP (Promega) in assay buffer was added to the wells containing compound and enzyme and mixing was performed by pipetting several times. The reaction was incubated at room temperature for 1 h. Then 18 μL of ADP-Glo™ Reagent (Promega) was added to stop the kinase reaction and deplete the unconsumed ATP, mixing was performed by pipetting several times. The plate was incubated at room temperature for 40 minutes before addition of 36 μL of Kinase Detection Reagent (Promega) to convert ADP to ATP and introduce luciferase and luciferin to detect ATP. The reaction was incubated at room temperature for 40 minutes before the luminescence was measured in a in a Victor 3V 1420 multilabel counter (Perkin Elmer).
Percent inhibition of the compounds as compared to dimethyl sulfoxide treated control samples was calculated. Compound concentration versus percent inhibition were fitted to generate IC50 values.

`CC1Oc2cc(N3CCCC3=O)ccc2-c2cnc(Nc3cncc(NC(=O)C4CCCO4)c3)cc21` (stereo not drawn) [Example 135, N-(5-((5-methyl-8-(2-oxopyrrolidin-1-yl)-5H-chromeno[4,3-c]pyridin-3-yl)amino)pyridin-3-yl)tetrahydrofuran-2-carboxamide]: the IC50 – broadly, the concentration needed to halve the response being measured – at PIP4K2B fell in the range of 10 to 100 nM; on PIP4K 2A it was 1 to 10 nM.

Take `CC1Oc2cc(N3CCCC3=O)ccc2-c2cnc(Nc3cncc(NC(=O)c4ccc5c(c4)OCO5)c3)cc21` (stereo not drawn) [Example 136, N-(5-((5-methyl-8-(2-oxopyrrolidin-1-yl)-5H-chromeno[4,3-c]pyridin-3-yl)amino)pyridin-3-yl)benzo[d][1,3]dioxole-5-carboxamide]: the results for the IC50 on PIP4K2B and against PIP4K 2A were 10 to 100 nM and 1 to 10 nM, respectively.

With `CC1Oc2cc(N3CCCC3=O)ccc2-c2cnc(Nc3cncc(NC(=O)c4cccc5c4OCO5)c3)cc21` (stereo not drawn) [Example 137, N-(5-((5-methyl-8-(2-oxopyrrolidin-1-yl)-5H-chromeno[4,3-c]pyridin-3-yl)amino)pyridin-3-yl)benzo[d][1,3]dioxole-4-carboxamide], the IC50 at PIP4K2B was in the range of 10 to 100 nM; at PIP4K 2A, 1 to 10 nM.

With `CC1Oc2cc(N3CCCC3=O)ccc2-c2cnc(Nc3cncc(NC(=O)C4Cc5ccccc5C4)c3)cc21` (stereo not drawn) [Example 138, N-(5-((5-methyl-8-(2-oxopyrrolidin-1-yl)-5H-chromeno[4,3-c]pyridin-3-yl)amino)pyridin-3-yl)-2,3-dihydro-1H-indene-2-carboxamide], the IC50 at PIP4K2B and on PIP4K 2A was 10 to 100 nM throughout.

For the molecule `CC1Oc2cc(N3CCCC3=O)ccc2-c2cnc(Nc3cncc(NC(=O)c4cn5ccccc5n4)c3)cc21` (stereo not drawn) [Example 139, N-(5-((5-methyl-8-(2-oxopyrrolidin-1-yl)-5H-chromeno[4,3-c]pyridin-3-yl)amino)pyridin-3-yl)imidazo[1,2-a]pyridine-2-carboxamide], the IC50 at PIP4K2B lay in the range of 10 to 100 nM; against PIP4K 2A it was 1 to 10 nM.

With `CC1Oc2cc(N3CCCC3=O)ccc2-c2cnc(Nc3cncc(NC(=O)c4cc5ccccn5n4)c3)cc21` (stereo not drawn) [Example 140, N-(5-((5-methyl-8-(2-oxopyrrolidin-1-yl)-5H-chromeno[4,3-c]pyridin-3-yl)amino)pyridin-3-yl)pyrazolo[1,5-a]pyridine-2-carboxamide], the IC50 at PIP4K2B is 10 to 100 nM; on PIP4K 2A, 1 to 10 nM.

In the case of `CC1Oc2cc(N3CCCC3=O)ccc2-c2cnc(Nc3cncc(NC(=O)c4cc5ccccc5[nH]4)c3)cc21` (stereo not drawn) [Example 141, N-(5-((5-methyl-8-(2-oxopyrrolidin-1-yl)-5H-chromeno[4,3-c]pyridin-3-yl)amino)pyridin-3-yl)-1H-indole-2-carboxamide], the results for the IC50 on PIP4K2B and on PIP4K 2A were 10 to 100 nM and 1 to 10 nM, respectively.

For `CC1Oc2cc(N3CCCC3=O)ccc2-c2cnc(Nc3cncc(NC(=O)C4Cc5ccccc5O4)c3)cc21` (stereo not drawn) [Example 142, N-(5-((5-methyl-8-(2-oxopyrrolidin-1-yl)-5H-chromeno[4,3-c]pyridin-3-yl)amino)pyridin-3-yl)-2,3-dihydrobenzofuran-2-carboxamide], the IC50 lay in the range of 100 to 1000 nM on PIP4K2B and 10 to 100 nM at PIP4K 2A.

`CC1Oc2cc(N3CCCC3=O)ccc2-c2cnc(Nc3cncc(NC(=O)c4cnc5ccccn45)c3)cc21` (stereo not drawn) [Example 143, N-(5-((5-methyl-8-(2-oxopyrrolidin-1-yl)-5H-chromeno[4,3-c]pyridin-3-yl)amino)pyridin-3-yl)imidazo[1,2-a]pyridine-3-carboxamide]: the IC50 on PIP4K2B is 1 to 10 nM; against PIP4K 2A it was not above 1 nM.

`CC1Oc2cc(N3CCCC3=O)ccc2-c2cnc(Nc3cncc(NC(=O)c4cnn5ccccc45)c3)cc21` (stereo not drawn) [Example 144, N-(5-((5-methyl-8-(2-oxopyrrolidin-1-yl)-5H-chromeno[4,3-c]pyridin-3-yl)amino)pyridin-3-yl)pyrazolo[1,5-a]pyridine-3-carboxamide]: the IC50 on PIP4K2B is 1 to 10 nM; at PIP4K 2A, not above 1 nM.

Consider `CC1Oc2cc(N3CCCC3=O)ccc2-c2cnc(Nc3cncc(NC(=O)Cc4cnc5ccccn45)c3)cc21` (stereo not drawn) [Example 145, 2-(imidazo[1,2-a]pyridin-3-yl)-N-(5-((5-methyl-8-(2-oxopyrrolidin-1-yl)-5H-chromeno[4,3-c]pyridin-3-yl)amino)pyridin-3-yl)acetamide], for which the IC50 at PIP4K2B was 10 to 100 nM; at PIP4K 2A, 1 to 10 nM.

On to `CC1Oc2cc(N3CCCC3=O)ccc2-c2cnc(Nc3cncc(NC(=O)c4cccc5nccn45)c3)cc21` (stereo not drawn) [Example 146, N-(5-((5-methyl-8-(2-oxopyrrolidin-1-yl)-5H-chromeno[4,3-c]pyridin-3-yl)amino)pyridin-3-yl)imidazo[1,2-a]pyridine-5-carboxamide], for which the IC50 at PIP4K2B is 1 to 10 nM; against PIP4K 2A, not above 1 nM.

`CC1Oc2cc(N3CCCC3=O)ccc2-c2cnc(Nc3cncc(NC(=O)c4ccn5ccnc5c4)c3)cc21` (stereo not drawn) [Example 147, N-(5-((5-methyl-8-(2-oxopyrrolidin-1-yl)-5H-chromeno[4,3-c]pyridin-3-yl)amino)pyridin-3-yl)imidazo[1,2-a]pyridine-7-carboxamide]: the results for the IC50 on PIP4K2B and at PIP4K 2A were 10 to 100 nM and 1 to 10 nM, respectively.

As to `COC(=O)N1CCOc2ncc(Nc3cc4c(cn3)-c3cc(F)c(N5CCCC5=O)cc3OC4C)cc21` (stereo not drawn) [Example 150, methyl 7-((9-fluoro-5-methyl-8-(2-oxopyrrolidin-1-yl)-5H-chromeno[4,3-c]pyridin-3-yl)amino)-2,3-dihydro-1H-pyrido[2,3-b][1,4]oxazine-1-carboxylate], the half-inhibitory concentration (IC50) at PIP4K2B is 1 to 10 nM; against PIP4K 2A it was not above 1 nM.

Take `CC1Oc2cc(N3CCCC3=O)c(F)cc2-c2cnc(Nc3cncc(N4CCNC4=O)c3)cc21` (stereo not drawn) [Example 151, 1-(5-((9-fluoro-5-methyl-8-(2-oxopyrrolidin-1-yl)-5H-chromeno[4,3-c]pyridin-3-yl)amino)pyridin-3-yl)imidazolidin-2-one]: the IC50 on PIP4K2B fell in the range of 10 to 100 nM; against PIP4K 2A it was 1 to 10 nM.
